The record followed here is PubChem BioAssay AID588780 (Sanford-Burnham Center for Chemical Genomics, 2011).

The source made the active and inactive calls.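 Rule for the calls: active = compounds whose fitted half-maximal concentration in the cell-protection dose series is at or below a set limit; inactive = the rest.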 Where only a bound is given, the exact number is not on record here.

The term IC50 denotes the point on the concentration scale where inhibition reaches its midpoint.

For the assay, the system named is H9c2 cardiomyocytes, 2-deoxyglucose stress, ATP luminescence, 2 h. The experiment in a line: protection of cardiomyocytes from 2-deoxyglucose injury, dose response, cell-based, 2-deoxyglucose stress, uHTS hits (AID 588780).
Consider `O=C(CCn1nc(-c2ccccc2)c2ccccc2c1=O)N1CCN(c2ccccc2)CC1`, for which the IC50 is > 79 µM (inactive).

Regarding `O=c1[nH]c2ccccc2n1CCCN1CCC(n2c(=O)[nH]c3cc(Cl)ccc32)CC1`, the IC50 was > 79 µM (inactive).

On to `CCn1c(=O)cc(OCC(=O)Nc2ccccc2C#N)c2ccccc21`, for which the IC50 is > 79 µM (inactive).

Take `CCCn1nc(C(=O)OCC(=O)c2c(N)n(C)c(=O)n(C)c2=O)c2ccccc2c1=O`: the IC50 is 56.6 µM (inactive).

Take `NC(=O)c1c(NC(=O)Cn2nc(C(=O)O)c3ccccc3c2=O)sc2c1CCC2`: the IC50 was > 79 µM (inactive).

Take `CC(=O)c1ccc(N2CCN(C(=O)C3CCCN(c4ncnc5c4nc4n5CCCCC4)C3)CC2)cc1` (centres undefined): the IC50 was 17.5 µM.

Turning to `O=C(COc1ccc(F)cc1)N/N=C/c1cccc2cccnc12`, the IC50 was > 79 µM (inactive).

As for `COc1ccc2[nH]c(=O)c(CN(Cc3ccco3)C(c3nnnn3Cc3ccccc3)C(C)C)cc2c1` (centres undefined), the IC50 was > 79 µM (inactive).

In the case of `Cc1ccc(-c2n[nH]c(=O)c3ccccc23)cc1N`, the IC50 was 17.5 µM.

With `O=C(OCc1cc(=O)n2ccsc2n1)c1ccc(O)cc1O`, the IC50 is > 79 µM (inactive).

With `O=c1[nH]ccc2c(O)cccc12`, the IC50 is > 79 µM (inactive).

For `COc1ccc(N(Cc2cc3cc(OC)ccc3[nH]c2=O)C(=O)c2cccnc2)cc1`, the IC50 was > 79 µM (inactive).

`COc1ccccc1OCCSc1nc2ccccc2c(=O)[nH]1`: the IC50 is > 79 µM (inactive).

Turning to `CN(C)N(Cc1ccccc1)C(=O)C(O)(c1ccccc1)c1ccccc1`, the IC50 was > 79 µM (inactive).

With `CC1(C)Oc2ccc3ccc(=O)oc3c2/C(=C/Nc2ccccn2)C1=O`, the concentration for half-maximal inhibition (IC50) is 10.2 µM.

For the compound `COC(=O)c1ccccc1NC(=O)c1ccc2nccnc2c1`, the IC50 was > 79 µM (inactive).

Regarding `C[C@H]1Cn2cnc(C(=O)N[C@@H](Cc3c[nH]c4ccccc34)C(=O)OC(C)(C)C)c2C(=O)N1`, the IC50 is 21 µM.

In the case of `Cc1ccc(C(=O)CSc2nc3ccccc3c(=O)[nH]2)cc1`, the IC50 was > 79 µM (inactive).

Regarding `COc1cccc(Nc2nc(-c3sc(NC(=O)c4ccco4)nc3C)cs2)c1`, the IC50 was > 79 µM (inactive).

Take `COc1ccc(C(=O)Nc2cccc(/C(C)=N/NC(=O)c3ccc([N+](=O)[O-])c(C)c3)c2)cc1OC`: the IC50 was > 79 µM (inactive).

For the compound `O=c1[nH]n(Cc2ccccc2)c(=O)c2ccccc12`, the IC50 was > 79 µM (inactive).

`COc1cccc(OC)c1C(=O)Nc1ccc(Br)c(C(=O)c2ccccc2)c1`: the IC50 is 10.7 µM.

Consider `COc1ccc(-n2c(/C=C/c3ccc(O)cc3)nc3ccccc3c2=O)cc1`, for which the IC50 was 15.8 µM.

For the compound `O=C(OCC(=O)N1CCCCCC1)c1n[nH]c(=O)c2ccccc12`, the IC50 is > 79 µM (inactive).

`COC(=O)c1cc2ccccn2c2c(C(=O)OC)c(C(=O)OC)cc1-2`: the IC50 was > 79 µM (inactive).

Turning to `O=C(Cn1[nH]c(=O)c2ccccc2c1=O)NCC1COc2ccccc2O1` (centres undefined), the IC50 was > 79 µM (inactive).

On to `CCN(C[C@H]1N[C@@](C)(C(=O)OC)[C@H]2C(=O)N(Cc3ccccc3)C(=O)[C@@H]12)C(=O)c1ccc(C(C)(C)C)cc1`, for which the IC50 was > 79 µM (inactive).

Consider `CCCCn1c(N)c(Br)c(=O)[nH]c1=O`, for which the IC50 was > 79 µM (inactive).

For the compound `Cc1[nH]c(-c2ccccn2)nc(=S)c1Cl`, the IC50 is > 79 µM (inactive).

As to `Cc1c(OCC(=O)NCCN2CCOCC2)ccc2c1oc(=O)c1ccccc12`, the half-inhibitory concentration (IC50) was 10.9 µM.

In the case of `Cc1cccc(C)c1OCCn1nc(C(=O)O)c2ccccc2c1=O`, the IC50 was 10.8 µM.

Consider `COc1ccc(NC(=S)N(Cc2cccnc2)Cc2cc3cc(OC)c(OC)cc3[nH]c2=O)cc1`, for which the IC50 is > 79 µM (inactive).

Turning to `NC(=O)c1ccc(Nc2nnc(-c3ccc(O)cc3)c3ccccc23)cc1`, the IC50 was 29.6 µM.

Turning to `N#Cc1c(-c2cccs2)cc(-c2cccnc2)nc1N`, the IC50 is > 79 µM (inactive).

Regarding `CCOC(=O)C1=C(C)N=c2s/c(=C\c3ccncc3)c(=O)n2C1c1ccc2c(c1)OCO2` (centres undefined), the IC50 was 41.1 µM (inactive).

In the case of `O=C(CNC(=O)c1ccccc1F)N/N=C/c1cc(Br)ccc1OC(=O)/C=C/c1ccco1`, the IC50 is > 79 µM (inactive).

For the compound `COc1cccc(-c2nn(-c3ccccc3)cc2C(=O)Nc2nccs2)c1`, the IC50 was > 79 µM (inactive).

For the compound `COc1ccc(-c2cc(C(=O)N(C)Cc3ccccc3F)c3ccccc3n2)cc1OC`, the IC50 was > 79 µM (inactive).

On to `O=C(Cn1[nH]c(=O)c2ccccc2c1=O)N1CCN(S(=O)(=O)c2ccc(Cl)cc2)CC1`, for which the IC50 was > 79 µM (inactive).

Regarding `CC(OC(=O)Cc1n[nH]c(=O)c2ccccc12)C(=O)Nc1ccc(F)cc1Cl` (centres undefined), the IC50 was > 79 µM (inactive).

For the compound `COc1ccc([N+](=O)[O-])cc1NC(=O)C(C)OC(=O)Cn1[nH]c(=O)c2ccccc2c1=O` (centres undefined), the IC50 is 40 µM (inactive).

`CC(=O)Nc1cccc(-c2cc(NC(C)=O)c3ncc(-c4cccc(C(C)=O)c4)n3c2)c1`: the IC50 is > 79 µM (inactive).

`COC(=O)c1ccc2c(=O)[nH]c(COC(=O)c3[nH]c(C)c(C(C)=O)c3C)nc2c1`: the IC50 is > 79 µM (inactive).

As for `CCc1ccc(C(C)NC(=O)c2cc(C)oc2C)cc1` (centres undefined), the IC50 is > 79 µM (inactive).

`CC(C)(C)OC(=O)C[C@@H]1C/C=C\C[C@@H](CC(=O)N[C@H](CO)Cc2ccccc2)C(=O)NC[C@@H](c2ccccc2)OC1=O`: the IC50 was > 79 µM (inactive).

Consider `COc1ccc(N(CC(=O)Nc2cccc(C(C)=O)c2)S(=O)(=O)c2ccc(NC(C)=O)cc2)cc1`, for which the concentration for half-maximal inhibition (IC50) was 10.7 µM.

For `COc1ccc(CCNC(=O)c2cc(C(=O)c3cc(C)ccc3O)cn(CCc3ccc(OC)cc3)c2=O)cc1`, the IC50 is > 79 µM (inactive).

With `COc1cc2c(C(=O)NCc3ccccn3)cn(CC(C)C)c(=O)c2cc1OC`, the IC50 is 54.6 µM (inactive).

With `COc1ccnc(Oc2ccc(F)cc2)c1C(=O)N/C=N/OCc1ccc(Cl)cc1Cl`, the 50% inhibitory concentration (IC50) was 12.3 µM.

As to `COc1ccc(/C=C/C(=O)c2ccccc2O)cc1CN1CCOCC1`, the IC50 was 36.7 µM (inactive).

`Cc1nc2c(c(=O)n1CCC1=CCCCC1)c1nc3ccccc3nc1n2/N=C/c1ccccc1`: the IC50 was 11.7 µM.

With `CCOC(=O)N1CCc2c(sc(NC(=O)CN3CCOCC3)c2C(=O)Nc2ccccc2)C1`, the IC50 was 54.6 µM (inactive).

With `COc1ccc(-c2cc(C(=O)NNC(=O)c3csc(N4CCOCC4)n3)c3ccccc3n2)cc1`, the IC50 is > 79 µM (inactive).

Regarding `COc1cccc(-c2nn3c(-c4ccco4)nnc3s2)c1`, the IC50 was > 79 µM (inactive).

In the case of `NC(=O)c1ccccc1N=Cc1ccccn1`, the IC50 was > 79 µM (inactive).

For `COc1cc(-c2cc(C(=O)OCC(=O)NC3CC3)c3ccccc3n2)cc(OC)c1OC`, the IC50 was 10.7 µM.

As to `COc1ccc(Nc2nc(Nc3ccc(OC)cc3OC)nc(N3CCN(C)CC3)n2)c(OC)c1`, the IC50 was 43.4 µM (inactive).

As to `O=c1[nH]c2ccccc2c2ccccc12`, the IC50 was > 79 µM (inactive).

On to `Cc1sc2nc(CSCC(=O)N(CCC#N)c3ccccc3F)[nH]c(=O)c2c1C`, for which the IC50 was 27.9 µM.

On to `O=c1[nH]c2cccc(Cl)c2c2ccccc12`, for which the IC50 was > 79 µM (inactive).

Regarding `CCOC(=O)c1c2c3c(cccc3n(C)c1=O)C(=O)c1ccccc1-2`, the IC50 was > 79 µM (inactive).

Consider `Cc1cc(Nc2ccccc2C(=O)O)nc2nc3ccccc3c(=O)n12`, for which the IC50 is > 79 µM (inactive).

As to `CC1(C)CC(=O)C2=C(C1)N(CCN1CCOCC1)C1=C(C(=O)CC(C)(C)C1)C2c1ccc(Cl)cc1`, the IC50 is 31.3 µM (inactive).

Turning to `Cc1cc(C)cc(OCC(=O)Nc2cccc(-c3nnc(-c4ccco4)o3)c2)c1`, the IC50 was > 79 µM (inactive).

For the compound `Oc1c(Br)cc(Br)cc1C=NCc1ccccc1`, the IC50 is > 79 µM (inactive).

Regarding `CCCn1c(NC(=O)c2ccccc2)nc2ccccc21`, the IC50 is > 79 µM (inactive).

For `NC(=O)c1cccc(Nc2nc(C(N)COCc3ccccc3)cs2)n1` (centres undefined), the IC50 was > 79 µM (inactive).

`O=C(COC(=O)Cc1n[nH]c(=O)c2ccccc12)Nc1ccc(Cl)cn1`: the IC50 is > 79 µM (inactive).

Turning to `Cc1cc(N)n(-c2nc(-c3cccnc3)nc3ccccc23)n1`, the IC50 was 19.8 µM.

Take `O=C(O)c1ccc2c(c1)S(=O)(=O)c1cc(N3CCN(c4cnccn4)CC3)ccc1C2=O`: the IC50 is > 79 µM (inactive).

For the compound `C=CCn1cnc2c(c1=O)c1nc3ccccc3nc1n2/N=C/c1cc(OC)c(OC)c(OC)c1`, the IC50 is > 79 µM (inactive).

On to `Cc1cnc(C=O)c2cccc([N+](=O)[O-])c12`, for which the IC50 is 44.6 µM (inactive).

As for `O=C1N[C@H](Cc2c[nH]c3ccccc23)COC(=O)[C@H](Cc2ccc(F)cc2)C/C=C\C[C@H]1CC(=O)N(CCO)Cc1ccccc1`, the IC50 is 17.6 µM.

Regarding `O=C(OCC(=O)N1CCc2ccccc21)c1n[nH]c(=O)c2ccccc12`, the IC50 was > 79 µM (inactive).

For `COc1cc(NC(=O)c2cc3c(C)nc4ccccc4c3o2)cc(OC)c1OC`, the IC50 was > 79 µM (inactive).

For the compound `CC(=O)c1ccccc1OCC(O)CN1CCN(CCN2C(=O)c3cccc4cccc(c34)C2=O)CC1` (centres undefined), the IC50 is > 79 µM (inactive).

With `CCn1c2ccccc2c2nc3cc(OC)c(OC)cc3nc21`, the IC50 was > 79 µM (inactive).

In the case of `CC(OC(=O)Cc1n[nH]c(=O)c2ccccc12)C(=O)Nc1ccc(Cl)cn1` (centres undefined), the IC50 was > 79 µM (inactive).

As to `O=C(NC1CCCCC1)C(c1ccc2ncccc2c1)N(Cc1cccs1)C(=O)c1cccs1` (centres undefined), the IC50 is 22 µM.

For the compound `CN(C)C(=O)c1ccc(-c2n[nH]c(=O)c3ccccc23)cc1`, the IC50 was > 79 µM (inactive).

Regarding `COc1ccc(-c2cc(=O)c3ccccc3[nH]2)cc1`, the IC50 is 65 µM (inactive).

Turning to `Cc1ccc(NC(=O)c2cc(=O)c3ccccc3o2)cc1S(=O)(=O)N1CCOCC1`, the IC50 was 35.4 µM (inactive).

On to `O=C(N/N=C/c1ccccn1)c1cccs1`, for which the IC50 was > 79 µM (inactive).

On to `COc1ccc(-c2nn3c(-c4ccccc4)nnc3s2)cc1OC`, for which the IC50 is > 79 µM (inactive).
